Test results published in US20050090529A1, “3,5 Disubstituted indazole compounds with nitrogen-bearing 5-membered heterocycles, pharmaceutical compositions, and methods for mediating or inhibiting cell proliferation” (PFIZER INC, priority 2003, published 2005).

System: Cyclin-dependent kinase
Experiment: Cyclin-dependent kinase inhibition, % inhibition at 10 nM (library Examples 99-270)
Type: biochemical
Conditions: 10 nM compound
How it was run: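 Radiometric filter assay: kinase transfers ³²P/³³P from 25 μM ATP to a protein substrate in pH 7.4 HEPES buffer with MgCl2, 2% DMSO, 30° C, 20 min. EDTA stop; substrate captured on nitrocellulose or phosphocellulose membrane, washed with phosphoric acid, counted by phosphorimager.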

Row | Compound | % Inhib @ 10 nM
1 | CCNCc1cncc(-c2ccc3[nH]nc(-c4ncc(C(=O)N[C@H](CO)Cc5ccc(O)cc5)[nH]4)c3c2)c1C [Example 173] | 45%
2 | CCNCc1cncc(-c2ccc3[nH]nc(-c4ncc(C(=O)NCCc5cc(OC)c(O)c(OC)c5)[nH]4)c3c2)c1C [Example 167] | 28%
3 | CCNCc1cncc(-c2ccc3[nH]nc(-c4ncc(C(=O)N5CCC(C)(c6cccc(OC)c6)C5)[nH]4)c3c2)c1C (stereo not shown) [Example 197, ethyl({5-[3-(5-{[3-(3-methoxyphenyl)-3-methylpyrrolidin-1-yl]carbonyl}-1H-imidazol-2-yl)-1H-indazol-5-yl]-4-methylpyridin-3-yl}methyl)amine] | 67%
4 | CCNCc1cncc(-c2ccc3[nH]nc(-c4ncc(C(=O)N[C@H](CO)Cc5c[nH]c6ccccc56)[nH]4)c3c2)c1C [Example 140, 2-(5-{5-[(ethylamino)methyl]-4-methylpyridin-3-yl}-1H-indazol-3-yl)-N-[(1S)-2-hydroxy-1-(1H-indol-3-ylmethyl)ethyl]-1 H-imidazole-5-carboxamide] | 31%
5 | CCNCc1cncc(-c2ccc3[nH]nc(-c4ncc(C(=O)NCc5cc6cc[nH]c6cn5)[nH]4)c3c2)c1C [Example 215] | 72%
6 | CCNCc1cncc(-c2ccc3[nH]nc(-c4ncc(C(=O)N[C@H](Cc5ccccc5)C(N)=O)[nH]4)c3c2)c1C [Example 108, N-{[2-(5-{5-[(ethylamino)methyl]-4-methylpyridin-3-yl}-1H-indazol-3-yl)-1H-imidazol-5-yl]carbonyl}-D-phenylalaninamide] | 57%
7 | CCNCc1cncc(-c2ccc3[nH]nc(-c4ncc(C(=O)N5CCN(Cc6ccccc6)CC5)[nH]4)c3c2)c1C [Example 117] | 72%
8 | CCNCc1cncc(-c2ccc3[nH]nc(-c4ncc(C(=O)N5CCN(c6ncccc6C#N)CC5)[nH]4)c3c2)c1C [Example 226] | 62%
9 | CCNCc1cncc(-c2ccc3[nH]nc(-c4ncc(C(=O)N5Cc6ccccc6C(c6ccccn6)C5)[nH]4)c3c2)c1C (stereo not shown) [Example 218, ethyl{[4-methyl-5-(3-{5-[(4-pyridin-2-yl-3,4-dihydroisoquinolin-2(1H)-yl)carbonyl]-1H-imidazxol-2-yl}-1H-indazol-5-yl)pyridin-3-yl]methyl}amine] | 47%
10 | CCNCc1cncc(-c2ccc3[nH]nc(-c4ncc(C(=O)N5CCC(C(=O)c6ccccc6)CC5)[nH]4)c3c2)c1C [Example 171, (1-{[2-(5-{5[(ethylamino)methyl]-4-methylpyridin-3-yl}-1H-indazol-3-yl)-1H-imidazol-5-yl]carbonyl}piperidin-4-yl)(phenyl)methanone] | 65%
11 | CCNCc1cncc(-c2ccc3[nH]nc(-c4ncc(C(=O)N5CCC(n6c(C)nc7cnccc76)CC5)[nH]4)c3c2)c1C [Example 247, ethyl({4-methyl-5-[3-(5-{[4-(2-methyl-1H-imidazol[4,5-c]pyridin-1-yl)piperidin-1-yl]carbonyl}-1H-imidazol-2-yl)-1H-indazol-5-yl]pyridin-3-yl}methyl)amine] | 26%
12 | CCNCc1cncc(-c2ccc3[nH]nc(-c4ncc(C(=O)N5CCC(Cc6cccc(CO)c6)CC5)[nH]4)c3c2)c1C [Example 262, (3-[(1-{[2-(5-{5-[(ethylamino)methyl]-4-methylpyridin-3-yl}-1H-indazol-3-yl)-1H-imidazol-5-yl]carbonyl}piperidin-4-yl)methyl]phenyl}methanol] | 59%

Continued, values first:

Row | % Inhib @ 10 nM | Compound
13 | 46% | CCNCc1cncc(-c2ccc3[nH]nc(-c4ncc(C(=O)N5CCC(c6nnc(C7CC7)o6)CC5)[nH]4)c3c2)c1C [Example 256, ({5-[3-(5-[[4-(5-cyclopropyl-1,3,4-oxadiazol-2-yl)piperidin-1-yl]carbonyl}-1H-imidazol-2-yl)-1H-indazol-5-yl]-4-methylpyridin-3-yl}methyl)ethylamine]
14 | 57% | CCNCc1cncc(-c2ccc3[nH]nc(-c4ncc(C(=O)NC5CCOCC5)[nH]4)c3c2)c1C [Example 211, 2-(5-{5-[(ethylamino)methyl]-4-methylpyridin-3-yl}-1H-indazol-3-yl)-N-(tetrahydro-2H-pyran-4-yl)-1H-imidazole-5-carboxamide]
15 | 28% | CCNCc1cncc(-c2ccc3[nH]nc(-c4ncc(C(=O)NCc5ccc(CN(C)C)cc5)[nH]4)c3c2)c1C [Example 159, N-{4[(dimethylamino)methyl]benzyl}-2-(5-{5-[(ethylamino)methyl]-4-methylpyridin-3-yl}-1H-indazol-3-yl)-1H-imidazole-5-carboxamide]
16 | 59% | CCNCc1cncc(-c2ccc3[nH]nc(-c4ncc(C(=O)NCCCc5c[nH]cn5)[nH]4)c3c2)c1C [Example 189, 2-(5-{5-[(ethylamino)methyl]-4-methylpyridin-3-yl}-1H-indazol-3-yl)-N-[3-(1H-imidazol-4-yl)propyl]-1H-imidazole-5-carboxamide]
17 | 73% | CCNCc1cncc(-c2ccc3[nH]nc(-c4ncc(C(=O)NCC5CCCCC5)[nH]4)c3c2)c1C [Example 166, N-(cyclohexylmethyl)-2-(5-{5-[(ethylamino)methyl]-4-methylpyridin-3-yl}-1H-indazol-3-yl)-1H-imidazole-5-carboxamide]
18 | 34% | CCNCc1cncc(-c2ccc3[nH]nc(-c4ncc(C(=O)N5CCCC(COCC6CC6)C5)[nH]4)c3c2)c1C (stereo not shown) [Example 269, [(5-(3-[5-({3-[(cyclopropylmethoxy)methyl]piperidin-1-yl}carbonyl)-1H-imidazol-2-yl]-1H-indazol-5-yl}-4-methylpyridin-3-yl)methyl]ethylamine]
19 | 54% | CCNCc1cncc(-c2ccc3[nH]nc(-c4ncc(C(=O)NCCOCCO)[nH]4)c3c2)c1C [Example 104]
20 | 60% | CCNCc1cncc(-c2ccc3[nH]nc(-c4ncc(C(=O)N5CCSCC5)[nH]4)c3c2)c1C [Example 163, ethyl[(4-methyl-5-{3-[5-(thiomorpholin-4-ylcarbonyl)-1H-imidazol-2-yl]-1H-indazol-5-yl}pyridin-3-yl)methyl]amine]
21 | 67% | CCNCc1cncc(-c2ccc3[nH]nc(-c4ncc(C(=O)N5CCN(c6c(C)cccc6C)CC5)[nH]4)c3c2)c1C [Example 133]
22 | 37% | CCNCc1cncc(-c2ccc3[nH]nc(-c4ncc(C(=O)N(C)C5CCN(C)C5)[nH]4)c3c2)c1C (stereo not shown) [Example 137, 2-(5-{5-[(ethylamino)methyl]-4-methylpyridin-3-yl}-1H-indazol-3-yl)-N-methyl-N-(1-methylpyrrolidin-3-yl)-1H-imidazole-5-carboxamide]
23 | 75% | CCNCc1cncc(-c2ccc3[nH]nc(-c4ncc(C(=O)N5CCC(Cc6ccccc6)C5)[nH]4)c3c2)c1C (stereo not shown) [Example 239]
24 | 40% | CCNCc1cncc(-c2ccc3[nH]nc(-c4ncc(C(=O)N5CCN(CCO)CC5)[nH]4)c3c2)c1C [Example 125, 2-(4-{[2-(5-{5-[(ethylamino)methyl]-4-methylpyridin-3-yl}-1H-indazol-3-yl)-1H-imidazol-5-yl]carbonyl}piperazin-1-yl)ethanol]
25 | 33% | CCNCc1cncc(-c2ccc3[nH]nc(-c4ncc(C(=O)N5CCC(Cc6ncccn6)CC5)[nH]4)c3c2)c1C [Example 260, ethyl({4-methyl-5-[3-(5-{[4-(pyrimidin-2-ylmethyl)piperidin-1-yl]carbonyl}-1H-imidazol-2-yl)-1H-indazol-5-yl]pyridin-3-yl}methyl)amine]
